Where two headings read alike, the source gives them in different places.
Experiments:
[1] = tested on: SCM-1 cells; assay: Cell viability (MTT) assay, SCM-1; type: cell-based; conditions: human gastric cancer cells, read-out: IC50 of cytotoxicity SCM-1
Source text: (§1) Human breast cancer MDA-MB-231 cells and gastric cancer SCM-1 cells were purchased from the American Type Culture Collection (Manasas, VA, USA). SCC2095 human oral cancer cells were kindly provided by Professor Susan R. Mallery (The Ohio State University). Normal human lung fibroblasts (NHLFs; CC-2512) were purchased from the Lonza (Walkersville, MD, USA). SCM-1 cells were maintained in RPMI-1640 medium (Invitrogen, Carlsbad, CA, USA); MDA-MB-231 and SCC2095 cells were maintained in DMEM/F12 (Invitrogen); and NHLFs were maintained in FGM™-2 medium (Lonza) with 2% serum, supplemented with 10% heat-inactivated foetal bovine serum (FBS; Gibco, Grand Island, NY, USA). All cells were cultured at 37 °C in a humidified incubator containing 5% CO2 and 95% relative humidity.
(§2) To assess cell viability, cells were seeded in three replicates into 96-well plates at a density of 5×10^3/well for 24 h following incubation with compounds at the indicated concentrations. Then, cell viability was assessed with 3–(4,5-dimethylthiazol-2-yl)-2,5-diphenyltetrazolium bromide (MTT) solution (0.5 mg/mL) for 4h as described previously. After removing the medium, 200 µL of DMSO was added, and then the absorbance was measured at 570 nm using a plate reader (BMG LABTECH, Germany).

[2] = tested on: HeLa nuclear HDACs; assay: HDAC inhibition assay, HeLa nuclear extract (mixture of class I HDACs 1, 2, and 3); conditions: read-out: IC50 HeLa nuclear HDACs, Boc-Lys-(AMC) substrate
[3] = tested on: HeLa nuclear HDACs; parameters: method as in PMID 33845233; conditions: introduction, earlier work; read-out: IC50 class I HDACs; cited from earlier work
[4] = target: T1, HDAC8 (Homo sapiens, UniProt Q9BY41); parameters: method as in PMID 33570940; conditions: cited from earlier work
T1 sequence (Q9BY41 1-377): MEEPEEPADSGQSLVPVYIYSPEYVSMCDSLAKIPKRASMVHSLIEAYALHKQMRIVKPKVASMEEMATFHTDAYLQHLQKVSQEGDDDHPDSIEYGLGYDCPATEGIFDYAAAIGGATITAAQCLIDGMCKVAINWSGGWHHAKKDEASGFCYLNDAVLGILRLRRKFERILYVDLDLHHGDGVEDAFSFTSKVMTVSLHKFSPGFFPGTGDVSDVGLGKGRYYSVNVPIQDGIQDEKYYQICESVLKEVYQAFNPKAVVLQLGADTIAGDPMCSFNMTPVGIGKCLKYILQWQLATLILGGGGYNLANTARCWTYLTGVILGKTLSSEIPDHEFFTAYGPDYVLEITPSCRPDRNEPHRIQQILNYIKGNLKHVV

[5] = tested on: MDA-MB-231 cells; assay: Cell viability (MTT) assay, MDA-MB-231; type: cell-based; conditions: human breast cancer cells, read-out: IC50 of cytotoxicity MDA-MB-231
Source text: as §1, §2

SMILES: CC(=O)O[C@H]1C(=O)[C@@]2(C)[C@H]([C@H](OC(=O)c3ccccc3)[C@]3(O)C[C@H](OC(=O)[C@H](O)[C@@H](NC(=O)c4ccccc4)c4ccccc4)C(C)=C1C3(C)C)[C@]1(OC(C)=O)CO[C@@H]1C[C@@H]2O [Paclitaxel, reference compound]
- IC50 [1]: 0.08 ± 0.01 µM

SMILES: NC(=O)c1ccc2c(c1)N(Cc1ccc(C(=O)NO)cc1)c1ccccc1S2 [LH4f, reference compound]
- IC50 [2]: 0.1 ± 0.02 µM
- IC50 [3]: 0.1 µM

SMILES: O=C(NO)c1ccc(CN2C(=O)c3ccccc3S2(=O)=O)cc1-c1ccccc1 [Compound 1]
- IC50 [4]: 0.07 µM

SMILES: CC/C(=C(\c1ccccc1)c1ccc(OCCN(C)C)cc1)c1ccccc1 [Tamoxifen, reference compound]
- IC50 [5]: 11.4 ± 0.9 µM
